Experimental data: patent US10640515B2, “Hepatitis C virus inhibitor and uses thereof” (priority 2016, dated 2020)
pEC50: −log10 of the molar value.

Legend:
[1] = in the rats, reported in a literature; cited from earlier work
[2] = CC50 by CellTiter-GLO kit, HCV-2a replicon cell; format: cell-based; conditions: human
From the text: (§1) A Huh7-Con1b cell line contained an HCV 1b-genotype replicon Con1b and a reporter gene of firefly luciferase. An Huh7-H77 and an Huh7-JFH1 cell line both contained a reporter gene of renilla luciferase and respectively contained an HCV 1a-genetype replicon H77 and an HCV 2a-genetype replicon JFH1. The replication level of HCV in host cells can be characterized by the expression of the firefly luciferase gene or the renilla luciferase gene. The effect of the compounds described herein on the HCV replication can be evaluated through a chemiluminescence detection of the expression of the above two luciferase genes. Meanwhile, the CC50 value of each Huh7 cell line was measured using a CellTiter GLO kit to evaluate the toxicity of the compounds.
(§2) The compounds described herein were subjected to three-fold serial dilutions using a Bravo liquid treatment system to obtain a total of 11 concentration points prior to cell plating. The prepared compounds were added to cell culture plates using an Echo 550 system. The Huh7-H77 and the Huh7-JFH1 cells were inoculated into the 96-well plate added with the compounds at an amount of 10000 cells per well. The Huh7-Con1b and the Huh7 cells were inoculated into the 384-well plate added with the compounds at an amount of 5000 cells per well. The cell culture plates were incubated in a CO2 incubator (5%) at 37° C. for 72 hours.
(§3) The CellTiter-GLO reagent was heated to room temperature. The 384-well plate plated with the Huh 7 cells was transferred from the incubator and cooled at room temperature for 20 minutes. Each well was added with 50 μL of the CellTiter-GLO reagent (Promega Inc.), and then the 384-well plate was shaken for 2 minutes. The 384-well plate was subsequently incubated in a dark environment at room temperature for 10 minutes. After the incubation, the 384-well plate was read using an Envision Plate Reader at a signal accumulation time of per well of 0.1 s.

[3] = system: HCV 1a-genetype replicon H77; assay: HCV replicon luciferase assay, HCV-1a replicon (Huh7-H77, renilla luciferase); format: cell-based; conditions: Hepatitis C virus, Huh7-H77 cells, 72 hours
From the text: (§4) The HCV replicon was first reported in Science. 1999 Jul. 2; 285 (5424), 110-3. The HCV replicon system has been one of the most important tools to investigate the RNA replication, pathogenicity and virus persistence of HCV. For example, the replicon has been successfully used to verify the 5′-NCR minimum region essential for HCV RNA replication, in addition, the HCV replicon system has been successfully used as an evaluation model for antiviral drugs.
(§5) In brief, three stably-transfected cell lines containing different HCV genotypes of replicons were used to test activity of the compounds in inhibiting the HCV replication.
as §1, §2
(§6) The 96-well plate was taken out of the incubator and cooled at room temperature for 30 minutes. After removing the medium, each well was added with 30 μL of a diluted Promega lysate (diluted using pure water in a volume ratio of 1:4). The 96-well plate was placed in a shaker at a shaking rate of 1000 rpm at room temperature for 15 minutes. Each well was added with 100 μL of a diluted Premega luciferase reagent (Promega Inc.) (diluted using a substrate buffer in a volume ratio of 1:99) and then, the 96-well plate was immediately read using an Envision Plate Reader at a signal accumulation time of per well of 0.1 s.

[4] = CC50 by CellTiter-GLO kit, HCV-1a replicon cell; format: cell-based; conditions: human
From the text: as §1, §2, §3

[5] = CC50 by CellTiter-GLO kit, HCV-1b replicon cell; format: cell-based; conditions: human
From the text: as §1, §2, §3

[6] = system: HCV 1b-genotype replicon Con1b; assay: HCV replicon luciferase assay, HCV-1b replicon (Huh7-Con1b, firefly luciferase); format: cell-based; conditions: Hepatitis C virus, Huh7-Con1b cells, 72 hours
From the text: as §5, §1, §2
The 384-well plate was taken out of the incubator and cooled at room temperature for 30 minutes. After removing the medium, each well was added with 50 μL of DPBS (Dulbecco's Phosphate Buffered Saline) and then added with 50 μL of a Britelit plus reagent (PerkinElmer Inc.). Then the 384-well plate was placed in a shaker at a shaking rate of 1000 rpm at room temperature for 1 minute. Finally, the 384-well plate was read using an Envision Plate Reader at a signal accumulation time of per well of 0.1 s.

[7] = system: HCV 2a-genetype replicon JFH1; assay: HCV replicon luciferase assay, HCV-2a replicon (Huh7-JFH1, renilla luciferase); format: cell-based, hepatitis C virus (HCV); conditions: Huh7-JFH1 cells
From the text: as §4, §5, §1, §2, §6

In the case of `COC(=O)N[C@H](C(=O)N1CCC[C@H]1C(=O)Nc1ccc([C@@H]2CC[C@@H](c3ccc(NC(=O)[C@@H]4CCCN4C(=O)[C@@H](NC(=O)OC)C(C)C)cc3)N2c2ccc(C(C)(C)C)cc2)cc1)C(C)C` [ABT-267], the bioavailability [1] is listed as 100%.

For `COC(=O)N[C@H](C(=O)N1CCC[C@H]1C(=O)Nc1ccc2c(c1)O[C@H](c1ccccc1)n1c-2cc2cc(NC(=O)[C@@H]3CCCN3C(=O)[C@@H](NC(=O)OC)C(C)C)ccc21)C(C)C` [PA6001-A], the CC50 at 72 h [2] was > 100 nM, the pEC50 [3] was 8.53 and the CC50 at 72 h [4] was > 100 nM. The CC50 at 72 h [5] was > 100 nM, the pEC50 [6] was 11.09 and the pEC50 ([7]; Hepatitis C virus, 72 h) was 10.26.

In the case of `COC(=O)N[C@H](C(=O)N1CCC[C@H]1C(=O)Nc1ccc2c(c1)O[C@@H](c1ccccc1)n1c-2cc2cc(NC(=O)[C@@H]3CCCN3C(=O)[C@@H](NC(=O)OC)C(C)C)ccc21)C(C)C` [PA6001-B], the CC50 at 72 h [2] was > 100 nM, the pEC50 [3] was 10.23 and the CC50 at 72 h [4] was > 100 nM. For the same molecule, the CC50 at 72 h [5] was > 100 nM, the pEC50 [6] was 11.17 and the pEC50 ([7]; Hepatitis C virus, 72 h) was 10.20.

In the case of `COC(=O)N[C@H](C(=O)N1CCC[C@H]1C(=O)Nc1ccc2c(c1)OC(c1ccccc1)n1c-2cc2cc(NC(=O)[C@@H]3CCCN3C(=O)[C@@H](NC(=O)OC)C(C)C)ccc21)C(C)C` (some centres unmarked) [PA6001], the CC50 at 72 h [2] was > 100 nM, the pEC50 [3] was 8.81 and the CC50 at 72 h [4] was > 100 nM. The CC50 at 72 h [5] was > 100 nM, the pEC50 [6] was 10.70 and the pEC50 ([7]; Hepatitis C virus, 72 h) was 10.23.

For `COC(=O)N[C@H](C(=O)N1CC2(CC2)C[C@H]1C(=O)Nc1ccc2c(c1)OC(c1ccccc1)n1c-2cc2cc(NC(=O)[C@@H]3CC4(CC4)CN3C(=O)[C@@H](NC(=O)OC)C(C)C)ccc21)C(C)C` (some centres unmarked) [PA6002], the CC50 at 72 h [2] was > 100 nM, the pEC50 [3] was 10.52 and the CC50 at 72 h [4] was > 100 nM. For the same molecule, the CC50 at 72 h [5] was > 100 nM, the pEC50 [6] was 11.30 and the pEC50 ([7]; Hepatitis C virus, 72 h) was 9.83.

With `COC(=O)N[C@H](C(=O)N1C[C@H](F)C[C@H]1C(=O)Nc1ccc2c(c1)OC(c1ccccc1)n1c-2cc2cc(NC(=O)[C@@H]3C[C@H](F)CN3C(=O)[C@@H](NC(=O)OC)C(C)C)ccc21)C(C)C` (some centres unmarked) [PA6010] the CC50 at 72 h [2] was > 100 nM, the pEC50 [3] was 9.97 and the CC50 at 72 h [4] was > 100 nM. The CC50 at 72 h [5] was > 100 nM, the pEC50 [6] was 11.35 and the pEC50 ([7]; Hepatitis C virus, 72 h) was 9.70.

With `COC(=O)N[C@H](C(=O)N1CC(F)(F)C[C@H]1C(=O)Nc1ccc2c(c1)OC(c1ccccc1)n1c-2cc2cc(NC(=O)[C@@H]3CC(F)(F)CN3C(=O)[C@@H](NC(=O)OC)C(C)C)ccc21)C(C)C` (some centres unmarked) [PA6011] the CC50 at 72 h [2] was > 100 nM, the pEC50 [3] was 10.32 and the CC50 at 72 h [4] was > 100 nM. For the same molecule, the CC50 at 72 h [5] was > 100 nM, the pEC50 [6] was 11.93 and the pEC50 ([7]; Hepatitis C virus, 72 h) was 9.51.

For `COC(=O)N[C@H](C(=O)N1CCC[C@H]1C(=O)Nc1ccc2c(c1)O[C@@H](c1cc(F)cc(F)c1)n1c-2cc2cc(NC(=O)[C@@H]3CCCN3C(=O)[C@@H](NC(=O)OC)C(C)C)ccc21)C(C)C` [PA6016-B], the CC50 at 72 h [2] was > 100 nM, the pEC50 [3] was 10.74 and the CC50 at 72 h [4] was > 100 nM. For the same molecule, the CC50 at 72 h [5] was > 100 nM, the pEC50 [6] was 11.36 and the pEC50 ([7]; Hepatitis C virus, 72 h) was 10.21.

In the case of `COC(=O)N[C@H](C(=O)N1CCC[C@H]1C(=O)Nc1ccc2c(c1)OC(c1cc(F)cc(F)c1)n1c-2cc2cc(NC(=O)[C@@H]3CCCN3C(=O)[C@@H](NC(=O)OC)C(C)C)ccc21)C(C)C` (some centres unmarked) [PA6016], the CC50 at 72 h [2] was > 100 nM, the pEC50 [3] was 10.36 and the CC50 at 72 h [4] was > 100 nM. For the same molecule, the CC50 at 72 h [5] was > 100 nM, the pEC50 [6] was 11.44 and the pEC50 ([7]; Hepatitis C virus, 72 h) was 10.30 to 10.40. It also gave a pEC50 ([7]; 72 hours) of 10.30.

In the case of `COC(=O)N[C@H](C(=O)N1CC2(CC2)C[C@H]1C(=O)Nc1ccc2c(c1)OC(c1cc(F)cc(F)c1)n1c-2cc2cc(NC(=O)[C@@H]3CC4(CC4)CN3C(=O)[C@@H](NC(=O)OC)C(C)C)ccc21)C(C)C` (some centres unmarked) [PA6017], the CC50 at 72 h [2] was > 100 nM, the pEC50 [3] was 10.57 and the CC50 at 72 h [4] was > 100 nM. The CC50 at 72 h [5] was > 100 nM, the pEC50 [6] was 11.63 and the pEC50 ([7]; Hepatitis C virus, 72 h) was 9.13.

In the case of `COC(=O)N[C@H](C(=O)N1C[C@H](F)C[C@H]1C(=O)Nc1ccc2c(c1)OC(c1cc(F)cc(F)c1)n1c-2cc2cc(NC(=O)[C@@H]3C[C@H](F)CN3C(=O)[C@@H](NC(=O)OC)C(C)C)ccc21)C(C)C` (some centres unmarked) [PA6018], the CC50 at 72 h [2] was > 100 nM, the pEC50 [3] was 10.45 and the CC50 at 72 h [4] was > 100 nM. The CC50 at 72 h [5] was > 100 nM, the pEC50 [6] was 11.53 and the pEC50 ([7]; Hepatitis C virus, 72 h) was 9.99.

For `COC(=O)N[C@H](C(=O)N1CC(F)(F)C[C@H]1C(=O)Nc1ccc2c(c1)OC(c1cc(F)cc(F)c1)n1c-2cc2cc(NC(=O)[C@@H]3CC(F)(F)CN3C(=O)[C@@H](NC(=O)OC)C(C)C)ccc21)C(C)C` (some centres unmarked) [PA6019], the CC50 at 72 h [2] was > 100 nM, the pEC50 [3] was 10.27 and the CC50 at 72 h [4] was > 100 nM. For the same molecule, the CC50 at 72 h [5] was > 100 nM and the pEC50 ([7]; Hepatitis C virus, 72 h) was 9.63.

For `COC(=O)N[C@H](C(=O)N1CCC[C@H]1C(=O)Nc1ccc2c(c1)O[C@@H](c1c(F)c(F)c(F)c(F)c1F)n1c-2cc2cc(NC(=O)[C@@H]3CCCN3C(=O)[C@@H](NC(=O)OC)C(C)C)ccc21)C(C)C` [PA6030], the CC50 at 72 h [2] was > 100 nM, the pEC50 [3] was 10.12 and the CC50 at 72 h [4] was > 100 nM. The CC50 at 72 h [5] was > 100 nM, the pEC50 [6] was 11.50 and the pEC50 ([7]; Hepatitis C virus, 72 h) was 9.68.

For `COC(=O)N[C@H](C(=O)N1CCC[C@H]1C(=O)Nc1ccc2c(c1)O[C@@H](c1c(F)c(F)cc(F)c1F)n1c-2cc2cc(NC(=O)[C@@H]3CCCN3C(=O)[C@@H](NC(=O)OC)C(C)C)ccc21)C(C)C` [PA6031], the CC50 at 72 h [2] was > 100 nM, the pEC50 [3] was 10.43 and the CC50 at 72 h [4] was > 100 nM. For the same molecule, the CC50 at 72 h [5] was > 100 nM, the pEC50 [6] was 11.64 and the pEC50 ([7]; Hepatitis C virus, 72 h) was 10.30 to 10.40. It also gave a pEC50 ([7]; 72 hours) of 10.40.

For `COC(=O)N[C@H](C(=O)N1CCC[C@H]1C(=O)Nc1ccc2c(c1)O[C@@H](c1cc(F)c(F)c(F)c1)n1c-2cc2cc(NC(=O)[C@@H]3CCCN3C(=O)[C@@H](NC(=O)OC)C(C)C)ccc21)C(C)C` [PA6032], the CC50 at 72 h [2] was > 100 nM, the pEC50 [3] was 10.77 and the CC50 at 72 h [4] was > 100 nM. The CC50 at 72 h [5] was > 100 nM, the pEC50 [6] was 11.52 and the pEC50 ([7]; Hepatitis C virus, 72 h) was 9.83.
